The target in one test is Protein smoothened (Mus musculus, UniProt P56726). Description: (§1) Agonist activity at SMO in mouse NIH3T3 cells incubated for 2 hrs by Bright-Glo luciferase assay. The test is classed as functional, cell-based.
For test [1], the target named is Protein smoothened (Mus musculus) (UniProt P56726). The test is described as §1. The test is classed as functional, cell-based.

Each structure is given as a SMILES string. Calls of active or inactive are those of the source. The calls are words filed in the database; no cut-off is given here.

Protein smoothened, sequence (P56726 whole entry): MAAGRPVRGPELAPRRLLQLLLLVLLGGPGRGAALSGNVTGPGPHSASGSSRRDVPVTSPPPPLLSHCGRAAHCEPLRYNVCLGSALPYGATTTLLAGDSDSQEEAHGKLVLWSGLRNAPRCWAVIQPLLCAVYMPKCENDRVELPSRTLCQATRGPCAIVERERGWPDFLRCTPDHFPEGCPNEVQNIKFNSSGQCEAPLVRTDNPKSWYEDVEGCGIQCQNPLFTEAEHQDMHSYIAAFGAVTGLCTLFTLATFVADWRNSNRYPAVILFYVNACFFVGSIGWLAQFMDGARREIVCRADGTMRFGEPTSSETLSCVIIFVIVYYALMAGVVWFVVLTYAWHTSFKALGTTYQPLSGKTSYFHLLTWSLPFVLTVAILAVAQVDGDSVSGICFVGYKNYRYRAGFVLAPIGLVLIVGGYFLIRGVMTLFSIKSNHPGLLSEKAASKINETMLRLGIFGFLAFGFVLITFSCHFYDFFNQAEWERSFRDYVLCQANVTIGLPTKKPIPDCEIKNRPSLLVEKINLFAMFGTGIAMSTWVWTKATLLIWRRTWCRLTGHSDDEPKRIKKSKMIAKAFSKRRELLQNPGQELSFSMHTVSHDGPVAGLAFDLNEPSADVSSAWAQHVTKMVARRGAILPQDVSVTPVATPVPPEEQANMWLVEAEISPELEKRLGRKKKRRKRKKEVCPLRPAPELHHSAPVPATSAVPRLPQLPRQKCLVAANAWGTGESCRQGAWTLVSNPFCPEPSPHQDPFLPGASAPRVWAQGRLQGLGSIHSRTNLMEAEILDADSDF
Protein smoothened (Mus musculus), sequence (P56726 whole entry): as above

By EC50 is commonly meant the concentration at which the effect is half-maximal. Higher therefore signals a need for much substance. `CN[C@H]1CC[C@H](N(Cc2cccc(-c3ccnc(OCCOCCOCCOCCOCCOCCn4cc(COCCOCCOCCOCCOCCOCCOCCOCCOCCCCCC[C@@H](C)C5CC[C@H]6[C@@H]7CC=C8C[C@@H](O)CC[C@]8(C)[C@H]7CC[C@]56C)nn4)c3)c2)C(=O)c2sc3ccccc3c2Cl)CC1` (stereo not given in full): the EC50 at Protein smoothened was 200 nM. In other words, the sub-micromolar range.

Turning to `CN[C@H]1CC[C@H](N(Cc2cccc(-c3ccnc(OCCOCCOCCOCCOCCn4cc(COCCOCCOCCOCCOCCOCCOCCCCCCC(C)(O)C5CC[C@H]6[C@@H]7CC=C8C[C@@H](O)CC[C@]8(C)[C@H]7CC[C@]56C)nn4)c3)c2)C(=O)c2sc3ccccc3c2Cl)CC1` (stereo not given in full), in test [1], the result was inactive.

Take `CN[C@H]1CC[C@H](N(Cc2cccc(-c3ccnc(OCCOCCOCCOCCn4cc(COCCOCCOCCCCCC[C@](C)(O)C5CC[C@H]6[C@@H]7CC=C8C[C@@H](O)CC[C@]8(C)[C@H]7CC[C@]56C)nn4)c3)c2)C(=O)c2sc3ccccc3c2Cl)CC1` (stereo not given in full): it took 8 nM to reach a half-maximal effect at Protein smoothened (EC50). In other words, the single-digit nanomolar range.

`CC(O)(CCCCCCOCCOCc1cn(CCOCCOCCOCCO)nn1)C1CC[C@H]2[C@@H]3CC=C4C[C@@H](O)CC[C@]4(C)[C@H]3CC[C@]12C` (stereo not given in full) yielded an EC50 at Protein smoothened of more than 100000 nM.

`CN[C@H]1CC[C@H](N(Cc2cccc(-c3ccnc(OCCOCCOCCOCCn4cc(COCCCCCC[C@](C)(O)C5CC[C@H]6[C@@H]7CC=C8C[C@@H](O)CC[C@]8(C)[C@H]7CC[C@]56C)nn4)c3)c2)C(=O)c2sc3ccccc3c2Cl)CC1` (stereo not given in full) displayed a half-maximal effective concentration (EC50) on Protein smoothened of 8 nM. In other words, the single-digit nanomolar range.

With `CN[C@H]1CC[C@H](N(Cc2cccc(-c3ccnc(OC)c3)c2)C(=O)c2sc3ccccc3c2Cl)CC1`, the 50% effective concentration (EC50) at Protein smoothened amounted to 819 nM. Against the preceding compound, the EC50 is about 100-fold higher.

In turn, `CN[C@H]1CC[C@H](N(Cc2cccc(-c3ccnc(OCCOCCOCCOCCn4cc(COCCOCCOCCOCCCCCC[C@@H](C)C5CC[C@H]6[C@@H]7CC=C8C[C@@H](O)CC[C@]8(C)[C@H]7CC[C@]56C)nn4)c3)c2)C(=O)c2sc3ccccc3c2Cl)CC1` (stereo not given in full) showed an EC50 at Protein smoothened of 200 nM.

Take `CN[C@H]1CC[C@H](N(Cc2cccc(-c3ccnc(OCCOCCOCCOCCn4cc(COCCOCCOCCOCCOCCCCCC[C@](C)(O)C5CC[C@H]6[C@@H]7CC=C8C[C@@H](O)CC[C@]8(C)[C@H]7CC[C@]56C)nn4)c3)c2)C(=O)c2sc3ccccc3c2Cl)CC1` (stereo not given in full): in test [1], the result was inactive.

`CN[C@H]1CC[C@H](N(Cc2cccc(-c3ccnc(OCCOCCOCCOCCn4cc(COCCOCCOCCOCCOCCOCCOCCCCCC[C@@H](C)C5CC[C@H]6[C@@H]7CC=C8C[C@@H](O)CC[C@]8(C)[C@H]7CC[C@]56C)nn4)c3)c2)C(=O)c2sc3ccccc3c2Cl)CC1` (stereo not given in full) displayed an EC50 on Protein smoothened of 200 nM.

`CN[C@H]1CC[C@H](N(Cc2cccc(-c3ccnc(OCCOCCOCCOCCOCCOCCn4cc(COCCOCCOCCOCCOCCOCCOCCOCCCCCC[C@@H](C)C5CC[C@H]6[C@@H]7CC=C8C[C@@H](O)CC[C@]8(C)[C@H]7CC[C@]56C)nn4)c3)c2)C(=O)c2sc3ccccc3c2Cl)CC1` (stereo not given in full) returned an EC50 at Protein smoothened of 200 nM.

Take `CN[C@H]1CC[C@H](N(Cc2cccc(-c3ccnc(OCCOCCOCCn4cc(COCCCCCCC(C)(O)C5CC[C@H]6[C@@H]7CC=C8C[C@@H](O)CC[C@]8(C)[C@H]7CC[C@]56C)nn4)c3)c2)C(=O)c2sc3ccccc3c2Cl)CC1` (stereo not given in full): the EC50 on Protein smoothened is 8 nM.

For `CN[C@H]1CC[C@H](N(Cc2cccc(-c3ccnc(OCCOCCOCCOCCn4cc(COCCOCCOCCOCCCCCC[C@](C)(O)C5CC[C@H]6[C@@H]7CC=C8C[C@@H](O)CC[C@]8(C)[C@H]7CC[C@]56C)nn4)c3)c2)C(=O)c2sc3ccccc3c2Cl)CC1` (stereo not given in full), in test [1], the outcome was inactive.

In the case of `CN[C@H]1CC[C@H](N(Cc2cccc(-c3ccnc(OCCOCCOCCOCCn4cc(COCCO)nn4)c3)c2)C(=O)c2sc3ccccc3c2Cl)CC1`, the half-maximal effective concentration (EC50) at Protein smoothened was found to be 966 nM.

As for `CC(O)(CCCCCCO)C1CC[C@H]2[C@@H]3CC=C4C[C@@H](O)CC[C@]4(C)[C@H]3CC[C@]12C` (stereo not given in full), the EC50 at Protein smoothened is more than 100000 nM.

Turning to `CN[C@H]1CC[C@H](N(Cc2cccc(-c3ccnc(OCCOCCOCCOCCOCCOCCn4cc(COCCOCCOCCOCCOCCOCCOCCCCCC[C@@H](C)C5CC[C@H]6[C@@H]7CC=C8C[C@@H](O)CC[C@]8(C)[C@H]7CC[C@]56C)nn4)c3)c2)C(=O)c2sc3ccccc3c2Cl)CC1` (stereo not given in full), a half-maximal response on Protein smoothened (EC50) required 200 nM.

Values taken from ChEMBL document CHEMBL4828758, “Elucidation of Distinct Modular Assemblies of Smoothened Receptor by Bitopic Ligand Measurement” (J Med Chem, 2021).
